Reference: patent publication US9439898B2, “Methods for novel drug discovery, treatment and selective targeting for gefitinib-resistant non-small-cell lung cancer harboring T790M mutation” (Macau University of Science and Technology, priority 2014, dated 2016)
Read-outs that look alike come from different tables or passages of the source.

Experiments:
[1] = system: H2228 (EML4-ALK); conditions: cited from earlier work
[2] = system: H1975(EGFR^L858R+T790M); experiment: IC50 of sanguinarine against NSCLC cell line H1975; assay type: cell-based; conditions: for IC50: Homo sapiens, NCI-H1975
Text: (§1) Among the five cell lines, H1975 is the most sensitive cells to sanguinarine treatment, while A549 is the most resistant one.

[3] = system: HCC827(EGFR^L858R); experiment: IC50 of sanguinarine against NSCLC cell line HCC827; assay type: cell-based; conditions: Homo sapiens
Text: as §1

[4] = system: H1650 (EGFR^Exon19 deletion); experiment: IC50 of sanguinarine against NSCLC cell line H1650; assay type: cell-based; conditions: Homo sapiens, NCI-H1650
Text: as §1

[5] = system: H2228 (EML4-ALK); experiment: IC50 of sanguinarine against NSCLC cell line H2228; assay type: cell-based; conditions: Homo sapiens, NCI-H2228
Text: as §1

[6] = system: A549 (EGFR^wild-type); experiment: IC50 of sanguinarine against NSCLC cell line A549; assay type: cell-based; conditions: Homo sapiens
Text: as §1

[7] = system: H1975; experiment: Blocking of sanguinarine-induced apoptosis and EGFR degradation in H1975; assay type: cell-based; conditions: H1975, 24 hrs, flow cytometry
Text: The fold change of treated group is normalized to untreated group. Results are expressed as mean±S.E.M. The data represent mean±S.E.M. of three independent experiments. (n=3, ***p<0.001). In FIG. 6B, the up-regulation of NOX 3 by sanguinarine is also confirmed on protein level, which is corresponding to the degradation of EGFR. […] One of representative data is shown (n=3). FIG. 6D uses real-time PCR to detect the RNA expression level of Msr A in five NSCLC cell lines. The expression level of Msr in other 5 cell lines is normalized to that of BEAS-2B cell line. The data represent mean±S.E.M. of three independent experiments (n=3, *p<0.05, **p<0.01, ***p<0.001). The result in this example supports that NADPH oxidase and methionine sulfoxide reductase are key enzymes involved in the ROS generation induced by […] in gefitinib-resistant NSCLC. Schematic diagram of how methionine (Met) is oxidized by NADPH oxidase (ROS) and reduced by methionine sulfoxide reductase is shown in FIG. 5. FIG. 7 is a cell model further illustrating how sanguinarine and H2O2 act on the signaling pathway of inducing EGFR degradation in H1975 cells, and thereby leading to apoptosis of the cells. […]

[8] = system: total EGFR, EGFR (pY845) and EGFR (pY1068) in H1975 cells; experiment: Western blot of EGFR markers in H1975 cells; assay type: cell-based; conditions: 25 μM H2O2
Text: (§2) FIG. 2A is a control. Among the four cell lines, only H1975 cells have additional T790M mutation on EGFR. […] Compared with sanguinarine, effect of H2O2 on suppression of these markers in H1975 cells is relatively less significant. […] The EGFR degradation is also specific in NSCLC cells having T790M mutation by using sanguinarine or H2O2.

[9] = system: total EGFR, EGFR (pY845) and EGFR (pY1068) in A594 cells; experiment: Western blot of EGFR markers in A594 cells; assay type: cell-based; conditions: H2O2
Text: as §2

[10] = system: EGFR construct having double mutation (L858R and T790M) in HEK293 cells; experiment: Western blot of total EGFR in HEK293 cells transfected with EGFR L858R+T790M double mutation; assay type: cell-based
Experimental: HEK293 cells are used in this example as cell model to be transfected with different constructs of EGFR (wild-type, L858R mutation, Exon 19 deletion, L858R+T790M double mutation). In FIG. 3A, 3 μM saguinarine is added into the HEK293 transfected with different EGFR constructs.

[11] = system: short EGFR peptide containing the T790M mutation (LIMQL); experiment: ESI-MS of methionine oxidation in short EGFR peptide; assay type: biochemical; conditions: 10-100 μM H2O2 for 10 min
Text: The methionine amino acid of a short EGFR peptide containing the T790M mutation could be easily oxidized in a dose-dependent manner under oxidative stress condition. […] A peptide equivalent to the amino acid sequence position from 788 to 792 of EGFR in wild-type (LITQL) and T790M mutant (LIMQL) of EGFR (Sequence acquired from Pubmed database; SEQ. ID. NO. 2/GenBank Accession number of amino acid is NP_005219) is synthesized and both of them are subject to mass spectrometry. In FIG. 4A, ESI-MS detects the standard peptide of LIMQL and oxidized form of the peptide (LIM(O)QL). They are used as standard of the MS pattern of the un-oxidized form of methionine (“M”) and the oxidized form methionine (“M(O)”) for the EGFR short peptide. FIG. 4B-G are ESI-MS results of oxidized methionine in peptide treated with different concentrations of H2O2: FIG. 4B is for H2O2 untreated sample; FIG. 4C is for sample treated with 10 μM H2O2 for 10 min; FIG. 4D is for sample treated with 20 μM H2O2 for 10 min; FIG. 4E is for sample treated with 40 μM H2O2 for 10 min; FIG. 4F is for sample treated with 80 μM H2O2 for 10 min; FIG. 4G is for sample treated with 100 μM H2O2 for 10 min. One of representative data is shown (n=3).

Q: Which Gefitinib resistance [1] does the source give for COc1cc2ncnc(Nc3ccc(F)c(Cl)c3)c2cc1OCCCN1CCOCC1 [Gefitinib] here?
A: resistance

Q: With C[n+]1cc2c3c(ccc2c2ccc4cc5c(cc4c21)OCO5)OCO3 [sanguinarine] as the compound, how does the “IC50 value in H1975 fold lower than that of A549” value ([2]; H1975 vs A549) read?
A: 8 fold

Q: What about the “IC50 value in H1975 fold lower than that of H1650” value ([2]; H1975 vs H1650) of the same compound?
A: 5.1 fold

Q: What about the “IC50 value in H1975 fold lower than that of H2228” value ([2]; H1975 vs H2228) of the same compound?
A: 5.4 fold

Q: What about the “IC50 value in H1975 fold lower than that of HCC827” value ([2]; H1975 vs HCC827) of the same compound?
A: 3 fold

Q: And the IC50 ([2]; H1975, 24 hrs, read-out: IC50 value Treatment (24 hrs))?
A: 680 ± 240 nM

Q: And the IC50 ([2]; H1975, 48 hrs, read-out: IC50 value Treatment (48 hrs))?
A: 580 ± 140 nM

Q: And the IC50 ([3]; HCC827, 24 hrs, read-out: IC50 value Treatment (24 hrs))?
A: 1900 ± 248 nM

Q: What about the IC50 ([3]; HCC827, 48 hrs, read-out: IC50 value Treatment (48 hrs)) of the same compound?
A: 1060 ± 270 nM

Q: What about the IC50 ([4]; H1650, 24 hrs, read-out: IC50 value Treatment (24 hrs)) of the same compound?
A: 3470 ± 1310 nM

Q: What about the IC50 ([4]; H1650, 48 hrs, read-out: IC50 value Treatment (48 hrs)) of the same compound?
A: 2640 ± 1310 nM

Q: What about the IC50 ([5]; H2228, 24 hrs, read-out: IC50 value Treatment (24 hrs)) of the same compound?
A: 3730 ± 1230 nM

Q: And the IC50 ([5]; H2228, 48 hrs, read-out: IC50 value Treatment (48 hrs))?
A: 3080 ± 1560 nM

Q: What about the IC50 ([6]; A549, 24 hrs, read-out: IC50 value Treatment (24 hrs)) of the same compound?
A: 5710 ± 1730 nM

Q: And the IC50 ([6]; A549, 48 hrs, read-out: IC50 value Treatment (48 hrs))?
A: 3830 ± 1110 nM

Q: Which “blocking of apoptosis and degradation of EGFR induced by sanguinarine” value [7] does the source give for c1ccc2c(c1)[I+]c1ccccc1-2 [DPI] here?
A: blocks the apoptosis and the degradation of EGFR

Q: For OO [H2O2], which “expression level of total EGFR and pY845 EGFR” value [8] is on record?
A: slightly reduced

Q: And the “level of all markers (total EGFR, pY845 EGFR, pY1068 EGFR)” value [9]?
A: no significant change

Q: What about the “total EGFR level” value ([10]; 200 μM H2O2) of the same compound?
A: significant reduction

Q: What about the “total EGFR level” value ([10]; 300 μM H2O2) of the same compound?
A: more significant reduction

Q: And the “oxidation of methionine in short EGFR peptide” value [11]?
A: oxidized by ROS in a time- and dose-dependent manner
